From the NIST ThermoML archive (doi:10.1021/je400250u)
Several values for one entry are separate records, joined by “and”; a condition that tells them apart may be missing. Identical values can stand only once. Numbers after ± are expanded uncertainties.

Tests used:
[1] = xn = mol fraction of the nth substance listed; details: 100 kPa, Liquid, x2 = 0; for viscosity: Capillary tube (Ostwald / Ubbelohde) method; for mass density: Vibrating tube method
[2] = refractive index (Na D-line) (dimensionless); xn = mol fraction of the nth substance listed; details: Liquid, Standard Abbe refractometry, x2 = 0
[3] = refractive index (Na D-line) (dimensionless); details: 101.33 kPa, Liquid, Standard Abbe refractometry
[4] = 100 kPa, Liquid; for viscosity: Capillary tube (Ostwald / Ubbelohde) method; for mass density: Vibrating tube method

SMILES | viscosity ([1]; 293.15 K) [mPa·s] | mass density ([1]; 293.15 K) [kg/m3] | viscosity ([1]; 298.15 K) [mPa·s] | mass density ([1]; 298.15 K) [kg/m3] | viscosity ([1]; 303.15 K) [mPa·s] | mass density ([1]; 303.15 K) [kg/m3] | viscosity ([1]; 308.15 K) [mPa·s] | mass density ([1]; 308.15 K) [kg/m3] | viscosity ([1]; 313.15 K) [mPa·s] | mass density ([1]; 313.15 K) [kg/m3] | viscosity ([1]; 318.15 K) [mPa·s] | mass density ([1]; 318.15 K) [kg/m3] | viscosity ([1]; 323.15 K) [mPa·s] | mass density ([1]; 323.15 K) [kg/m3] | refractive index ([2]; 298.15 K, 100 kPa) | refractive index ([2]; 308.15 K, 100 kPa) | refractive index ([2]; 318.15 K, 100 kPa) | refractive index ([3]; 298.15 K) | refractive index ([3]; 308.15 K) | refractive index ([3]; 318.15 K) | other results
CCCCCCCCCC [decane] + C1CC[C@H]2CCCC[C@H]2C1 | 0.916 ± 0.012 | 731.14 ± 0.23 | 0.852 ± 0.012 | 727.43 ± 0.23 | 0.799 ± 0.012 | 723.64 ± 0.23 | 0.751 ± 0.011 | 719.84 ± 0.23 | 0.709 ± 0.011 | 716.03 ± 0.23 | 0.667 ± 0.011 | 712.2 ± 0.23 | 0.632 ± 0.011 | 708.36 ± 0.23 | 1.4098 ± 0.0012 | 1.4052 ± 0.0012 | 1.4 ± 0.0012 |  |  |  | 
CCCCCCCCCCC [undecane] + C1CC[C@H]2CCCC[C@H]2C1 | 1.17 ± 0.014 | 740.28 ± 0.32 | 1.086 ± 0.014 | 736.63 ± 0.32 | 1.004 ± 0.013 | 732.93 ± 0.32 | 0.931 ± 0.013 | 729.22 ± 0.32 | 0.862 ± 0.013 | 725.51 ± 0.32 | 0.801 ± 0.012 | 721.78 ± 0.32 | 0.749 ± 0.012 | 718.04 ± 0.31 | 1.4138 ± 0.0013 | 1.4095 ± 0.0013 | 1.4058 ± 0.0013 |  |  |  | 
CCCCCCCCCC [decane] + C1CC[C@H]2CCCC[C@@H]2C1 | 0.916 ± 0.012 | 731.14 ± 0.23 | 0.852 ± 0.012 | 727.43 ± 0.23 | 0.799 ± 0.012 | 723.64 ± 0.23 | 0.751 ± 0.011 | 719.84 ± 0.23 | 0.709 ± 0.011 | 716.03 ± 0.23 | 0.667 ± 0.011 | 712.2 ± 0.23 | 0.632 ± 0.011 | 708.36 ± 0.23 |  |  |  |  |  |  | refractive index ([2]; 298.15 K, 101 kPa): 1.4098 ± 0.0007; refractive index ([2]; 308.15 K, 101 kPa): 1.4052 ± 0.0007; refractive index ([2]; 318.15 K, 101 kPa): 1.4 ± 0.0007
C1CC[C@H]2CCCC[C@@H]2C1 [trans-decahydronaphthalene] |  |  |  |  |  |  |  |  |  |  |  |  |  |  |  |  |  | 1.4662 ± 0.0012 | 1.4618 ± 0.0012 | 1.4581 ± 0.0012 | viscosity ([4]; 293.15 K): 2.112 ± 0.015 mPa·s; mass density ([4]; 293.15 K): 869.78 ± 0.13 kg/m3; viscosity ([4]; 298.15 K): 1.925 ± 0.015 mPa·s; mass density ([4]; 298.15 K): 866.07 ± 0.13 kg/m3; viscosity ([4]; 303.15 K): 1.769 ± 0.014 mPa·s; mass density ([4]; 303.15 K): 862.34 ± 0.14 kg/m3; viscosity ([4]; 308.15 K): 1.628 ± 0.013 mPa·s; mass density ([4]; 308.15 K): 858.61 ± 0.14 kg/m3; viscosity ([4]; 313.15 K): 1.505 ± 0.013 mPa·s; mass density ([4]; 313.15 K): 854.88 ± 0.14 kg/m3; viscosity ([4]; 318.15 K): 1.394 ± 0.013 mPa·s; mass density ([4]; 318.15 K): 851.14 ± 0.14 kg/m3; viscosity ([4]; 323.15 K): 1.295 ± 0.012 mPa·s; mass density ([4]; 323.15 K): 847.4 ± 0.14 kg/m3
CCCCCCCCC [nonane] |  |  |  |  |  |  |  |  |  |  |  |  |  |  |  |  |  | 1.4026 ± 0.0013 | 1.3983 ± 0.0013 | 1.3937 ± 0.0013 | viscosity ([4]; 293.15 K): 0.724 ± 0.011 mPa·s; mass density ([4]; 293.15 K): 717.94 ± 0.24 kg/m3; viscosity ([4]; 298.15 K): 0.681 ± 0.011 mPa·s; mass density ([4]; 298.15 K): 714.11 ± 0.24 kg/m3; viscosity ([4]; 303.15 K): 0.64 ± 0.011 mPa·s; mass density ([4]; 303.15 K): 710.2 ± 0.24 kg/m3; viscosity ([4]; 308.15 K): 0.604 ± 0.011 mPa·s; mass density ([4]; 308.15 K): 706.29 ± 0.25 kg/m3; viscosity ([4]; 313.15 K): 0.571 ± 0.011 mPa·s; mass density ([4]; 313.15 K): 702.35 ± 0.25 kg/m3; viscosity ([4]; 318.15 K): 0.547 ± 0.011 mPa·s; mass density ([4]; 318.15 K): 698.4 ± 0.25 kg/m3; viscosity ([4]; 323.15 K): 0.521 ± 0.011 mPa·s; mass density ([4]; 323.15 K): 694.43 ± 0.25 kg/m3
C1CC[C@H]2CCCC[C@H]2C1 [cis-decahydronaphthalene] |  |  |  |  |  |  |  |  |  |  |  |  |  |  |  |  |  | 1.4776 ± 0.0013 | 1.4736 ± 0.0013 | 1.4696 ± 0.0013 | viscosity ([4]; 293.15 K): 3.355 ± 0.033 mPa·s; mass density ([4]; 293.15 K): 896.85 ± 0.48 kg/m3; viscosity ([4]; 298.15 K): 3.011 ± 0.03 mPa·s; mass density ([4]; 298.15 K): 893.06 ± 0.48 kg/m3; viscosity ([4]; 303.15 K): 2.718 ± 0.028 mPa·s; mass density ([4]; 303.15 K): 889.26 ± 0.48 kg/m3; viscosity ([4]; 308.15 K): 2.47 ± 0.026 mPa·s; mass density ([4]; 308.15 K): 885.46 ± 0.48 kg/m3; viscosity ([4]; 313.15 K): 2.252 ± 0.024 mPa·s; mass density ([4]; 313.15 K): 881.65 ± 0.48 kg/m3; viscosity ([4]; 318.15 K): 2.079 ± 0.022 mPa·s and 2.063 ± 0.022 mPa·s; mass density ([4]; 318.15 K): 877.85 ± 0.47 kg/m3; viscosity ([4]; 323.15 K): 1.912 ± 0.021 mPa·s and 1.898 ± 0.021 mPa·s; mass density ([4]; 323.15 K): 874.05 ± 0.47 kg/m3
CCCCCCCCCCC [undecane] |  |  |  |  |  |  |  |  |  |  |  |  |  |  |  |  |  | 1.4138 ± 0.0013 | 1.4095 ± 0.0013 | 1.4058 ± 0.0013 | viscosity ([4]; 293.15 K): 1.17 ± 0.014 mPa·s; mass density ([4]; 293.15 K): 740.28 ± 0.32 kg/m3; viscosity ([4]; 298.15 K): 1.086 ± 0.014 mPa·s; mass density ([4]; 298.15 K): 736.63 ± 0.32 kg/m3; viscosity ([4]; 303.15 K): 1.004 ± 0.013 mPa·s; mass density ([4]; 303.15 K): 732.93 ± 0.32 kg/m3; viscosity ([4]; 308.15 K): 0.931 ± 0.013 mPa·s; mass density ([4]; 308.15 K): 729.22 ± 0.32 kg/m3; viscosity ([4]; 313.15 K): 0.862 ± 0.013 mPa·s; mass density ([4]; 313.15 K): 725.51 ± 0.32 kg/m3; viscosity ([4]; 318.15 K): 0.801 ± 0.012 mPa·s; mass density ([4]; 318.15 K): 721.78 ± 0.32 kg/m3; viscosity ([4]; 323.15 K): 0.749 ± 0.012 mPa·s; mass density ([4]; 323.15 K): 718.04 ± 0.31 kg/m3
CCCCCCCCCC [decane] |  |  |  |  |  |  |  |  |  |  |  |  |  |  |  |  |  | 1.4098 ± 0.0012 | 1.4052 ± 0.0012 | 1.4 ± 0.0012 | viscosity ([4]; 293.15 K): 0.916 ± 0.012 mPa·s; mass density ([4]; 293.15 K): 731.14 ± 0.23 kg/m3; viscosity ([4]; 298.15 K): 0.852 ± 0.012 mPa·s; mass density ([4]; 298.15 K): 727.43 ± 0.23 kg/m3; viscosity ([4]; 303.15 K): 0.799 ± 0.012 mPa·s; mass density ([4]; 303.15 K): 723.64 ± 0.23 kg/m3; viscosity ([4]; 308.15 K): 0.751 ± 0.011 mPa·s; mass density ([4]; 308.15 K): 719.84 ± 0.23 kg/m3; viscosity ([4]; 313.15 K): 0.709 ± 0.011 mPa·s; mass density ([4]; 313.15 K): 716.03 ± 0.23 kg/m3; viscosity ([4]; 318.15 K): 0.667 ± 0.011 mPa·s; mass density ([4]; 318.15 K): 712.2 ± 0.23 kg/m3; viscosity ([4]; 323.15 K): 0.632 ± 0.011 mPa·s; mass density ([4]; 323.15 K): 708.36 ± 0.23 kg/m3
CCCCCCCCC [nonane] + C1CC[C@H]2CCCC[C@@H]2C1 | 0.724 ± 0.011 | 717.94 ± 0.24 | 0.681 ± 0.011 | 714.11 ± 0.24 | 0.64 ± 0.011 | 710.2 ± 0.24 | 0.604 ± 0.011 | 706.29 ± 0.25 | 0.571 ± 0.011 | 702.35 ± 0.25 | 0.547 ± 0.011 | 698.4 ± 0.25 | 0.521 ± 0.011 | 694.43 ± 0.25 | 1.4026 ± 0.0013 | 1.3983 ± 0.0013 | 1.3937 ± 0.0013 |  |  |  | 
CCCCCCCCCCC [undecane] + C1CC[C@H]2CCCC[C@@H]2C1 | 1.17 ± 0.014 | 740.28 ± 0.32 | 1.086 ± 0.014 | 736.63 ± 0.32 | 1.004 ± 0.013 | 732.93 ± 0.32 | 0.931 ± 0.013 | 729.22 ± 0.32 | 0.862 ± 0.013 | 725.51 ± 0.32 | 0.801 ± 0.012 | 721.78 ± 0.32 | 0.749 ± 0.012 | 718.04 ± 0.31 | 1.4138 ± 0.0013 | 1.4095 ± 0.0013 | 1.4058 ± 0.0013 |  |  |  | 
CCCCCCCCC [nonane] + C1CC[C@H]2CCCC[C@H]2C1 | 0.724 ± 0.011 | 717.94 ± 0.24 | 0.681 ± 0.011 | 714.11 ± 0.24 | 0.64 ± 0.011 | 710.2 ± 0.24 | 0.604 ± 0.011 | 706.29 ± 0.25 | 0.571 ± 0.011 | 702.35 ± 0.25 | 0.547 ± 0.011 | 698.4 ± 0.25 | 0.521 ± 0.011 | 694.43 ± 0.25 | 1.4026 ± 0.0013 | 1.3983 ± 0.0013 | 1.3937 ± 0.0013 |  |  |  | 
